Target: T1, TLR9 (Mus musculus, UniProt Q9EQU3)
T1 construct: from tissue; host or cells: whole animal: C57BL/6, FVB and FVB GADD34ΔC/ΔC mice
T1 sequence (Q9EQU3 26-1032): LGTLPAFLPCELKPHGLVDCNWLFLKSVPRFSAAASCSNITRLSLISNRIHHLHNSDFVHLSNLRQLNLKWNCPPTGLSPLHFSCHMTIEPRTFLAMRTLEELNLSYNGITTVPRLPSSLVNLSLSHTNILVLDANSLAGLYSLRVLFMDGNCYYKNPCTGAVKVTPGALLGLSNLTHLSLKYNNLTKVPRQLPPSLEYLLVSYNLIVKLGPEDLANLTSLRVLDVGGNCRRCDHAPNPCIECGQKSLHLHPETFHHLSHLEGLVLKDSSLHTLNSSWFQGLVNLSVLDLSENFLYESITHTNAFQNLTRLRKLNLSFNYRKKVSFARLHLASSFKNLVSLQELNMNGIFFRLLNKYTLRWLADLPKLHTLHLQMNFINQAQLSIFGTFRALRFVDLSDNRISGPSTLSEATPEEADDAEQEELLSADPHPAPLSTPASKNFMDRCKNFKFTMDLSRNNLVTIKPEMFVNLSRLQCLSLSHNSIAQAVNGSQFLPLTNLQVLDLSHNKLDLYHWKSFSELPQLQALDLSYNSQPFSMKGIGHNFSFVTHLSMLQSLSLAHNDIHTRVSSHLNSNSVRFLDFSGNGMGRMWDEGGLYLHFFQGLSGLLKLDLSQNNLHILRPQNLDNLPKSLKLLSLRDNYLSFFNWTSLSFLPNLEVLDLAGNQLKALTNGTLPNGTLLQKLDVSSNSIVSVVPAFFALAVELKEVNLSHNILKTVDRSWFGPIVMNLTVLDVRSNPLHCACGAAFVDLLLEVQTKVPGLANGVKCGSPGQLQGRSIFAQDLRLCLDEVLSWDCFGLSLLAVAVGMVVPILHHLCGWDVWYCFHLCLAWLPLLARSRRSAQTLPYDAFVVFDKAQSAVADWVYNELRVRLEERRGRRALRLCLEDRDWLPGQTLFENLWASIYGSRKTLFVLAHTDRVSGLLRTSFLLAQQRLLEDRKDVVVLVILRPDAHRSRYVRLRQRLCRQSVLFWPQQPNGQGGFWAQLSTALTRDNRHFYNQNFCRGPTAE
Experiment: D-galN/CpG ODN 1826 cytokine shock model
Assay type: in vivo
Protocol: WT and GADD34^ΔC/ΔC mice were injected with D-galN (20 mg/mouse), CpG ODN 1826 or PBS for control mice (50 μg/20 g), GBZ or clonidine (2 mg/kg). (A) Survival of C57/BL6 mice is represented as total percentage of survival after 48 h or in a Kaplan-Meier plot. (B) Survival of FVB (WT) and FVB GADD34^ΔC/ΔC mice is represented as total percentage of survival after 48 h or in a Kaplan-Meier plot. (C) The concentration of circulating TNF-α, IL-10 and IL-6 in C57/BL6 mice was measured after 1 h and/or 3 h of CpG ODN 1826. (D) Liver tissue damage and histology score were blindly determined by a professional anatomopathologist. Statistical significance was assigned on sample comparison by a one-way ANOVA, followed by Tukey range test and on the survival curve using log-rank test, followed by Benjamini-Yekutieli correction (* p<0.05; ** p<0.005; ***p<0.0005.).
Wild type female mice C57BL/6 of 8 weeks of age were injected i.p. with 2 mg/kg of GBZ, clonidine or PBS/DMSO. One hour later, they were injected i.p. with 20 mg/mouse of d-GalN and ODN 1826 50 μg/20 g (or PBS). Mice survival was checked every 12 hours for up to 48 hours. For some experiments, blood sera were collected 1 and 3 h after the injection of D-galN. The serum was used to measure circulating cytokines (TNFα, IL-6, IFNβ IL-10, IL-12). For some experiments, the liver was collected for immunohistochemistry after two days. For i.p. injections, 1 ml syringes and 25 gauge needles were used. Blood was collected from the cheek with a 18 gauge needle; for the TMPD model, no more than 200 μL were collected each time, respecting the ethic statement.
Mouse kidney and liver were fixed in 10% buffered formalin for 24 h, then the tissues were dehydrated and embedded in paraffin. Tissue sections of 3.5 μm were cut using the microtom Leica RM2245. Hematoxylin-eosin staining was effectuated automatically with Leica autostainer XL. Finally, the slides were mounted with entellan and kept at room temperature. Biopsies were analyzed by an anatomopathologist and the clinical score was assigned in a blinded way. Pictures were taken with Nikon Eclipse.
• a) Lobular inflammation • 0—no inflammation, 1—mild lobular inflammation (<10% of liver parenchyma), 2—moderate lobular inflammation (10-50% of liver parenchyma), 3—severe lobular inflammation (>50% of liver parenchyma) • b) Portal inflammation • 0—no portal inflammation, 1—mild portal inflammation (<⅓ of portal tracts), 2—moderate portal inflammation (approximately 50% of portal tracks), 3—severe portal inflammation (>⅔ of portal tracts) • Portal and lobular inflammation score are added=inflammation score • c) Necrosis • 0—No necrosis, 1—<10% necrosis of liver parenchyma, 2—10-25% necrosis of liver parenchyma, 3—25% necrosis of liver parenchyma • Inflammation score and necrosis score are added=Total histologic score

[1] = WT mice, 1 hour after CpG injection, 2 mg/kg

Q: `NC(N)=N/N=C/c1c(Cl)cccc1Cl` [GBZ, 2-(2,6-dichlorobenzylidene)-hydrazinecarboximidamide] was tested. Which “survival after 48 h” value (C57BL/6 WT mice, D-galN + CpG ODN 1826, compound 2 mg/kg i.p.) did it give?
A: Its value is “up to 70%”.

Q: What about the “liver cells survival (liver examination and histological scores)” value (CpG-induced lethality, GBZ 2 mg/kg) of the same molecule?
A: Its value is “little direct protective effect”.

Q: What about the survival (FVB GADD34ΔC/ΔC mice, D-galN + CpG, GBZ 2 mg/kg) of the same molecule?
A: The survival was “protected from death”.

Q: And the “decrease in efficiency of protection in GADD34ΔC/ΔC mice” value (GADD34ΔC/ΔC vs WT mice, GBZ 2 mg/kg)?
A: The value was about 28%.

Q: And the “production of IL-10” value (WT mice after CpG injection, GBZ 2 mg/kg)?
A: Its value is “strongly increased”.

Q: And the “circulating IL-6 plasma concentration” value [1]?
A: The value was “strongly attenuated”.

Q: And the “circulating TNF-α plasma concentration” value [1]?
A: Its value is “strongly attenuated”.
